{"source": "patent US7759345B2", "about": "“Antitumoral derivatives of ET-743” (priority 2001, dated 2010)", "type_in_all_cases": "cell-based", "key": {"IGROV-ET": {"test_system": "IGROV-ET", "assay": "Inhibition of cells growth by colorimetric assay (SRB), IGROV-ET", "settings": "SRB, 48 hours exposure", "experimental": "(§1) 2°.—Inhibition of Cells Growth by Colorimetric Assay.\n(§2) A colorimetric type of assay, using sulforhodamine B (SRB) reaction has been adapted for a quantitative measurement of cell growth and viability [following the technique described by Philip Skehan, et al. (1990), New colorimetric cytotoxicity assay for anticancer drug screening, J. Natl. Cancer Inst., 82:1107-1112]\n(§3) This form of the assay employs 96 well cell culture microplates of 9 mm diameter (Faircloth, 1988; Mosmann, 1983). Most of the cell lines are obtained from American Type Culture Collection (ATCC) derived from different human cancer types.\n(§4) Cells are maintained in RPMI 1640 10% FBS, supplemented with 0.1 g/l penicillin and 0.1 g/l streptomycin sulfate and then incubated at 37° C., 5% CO2 and 98% humidity. For the experiments, cells were harvested from subconfluent cultures using trypsin and resuspended in fresh medium before plating.\n(§5) Cells are seeded in 96 well microtiter plates, at 5×10^3 cells per well in aliquots of 195 μl medium, and they are allowed to attach to the plate surface by growing in drug free medium for 18 hours. Afterward, samples are added in aliquots of 5 μl in a ranging from 10 to 10^−8 μg/ml, dissolved in DMSO/EtOH/PBS (0.5:0.5:99). After 48 hours exposure, the antitumor effect are measured by the SRB methodology: cells are fixed by adding 50 μl of cold 50% (wt/vol) trichloroacetic acid (TCA) and incubating for 60 minutes at 4° C. Plates are washed with deionized water and dried. One hundred μl of SRB solution (0.4% wt/vol in 1% acetic acid) is added to each microtiter well and incubated for 10 minutes at room temperature. Unbound SRB is removed by washing with 1% acetic acid. Plates are air dried and bound stain is solubilized with Tris buffer. Optical densities are read on a automated spectrophotometric plate reader at a single wavelength of 490 nm.\n(§6) The values for mean+/−SD of data from triplicate wells are calculated. Some parameters for cellular responses can be calculated: GI=growth inhibition, TGI=total growth inhibition (cytostatic effect) and LC=cell killing (cytotoxic effect).\n(§7) Obtained results may predict the usefulness of a certain drug as a potential cancer treatment. For this technique, compounds which show GI50 values smaller than 10 μg/ml are selected to continue with further studies. GI50's data allow to predict that not only could a drug be cystostatic, but also it could have a potential in terms of tumor reduction."}, "SK-MEL-28": {"test_system": "SK-MEL-28", "assay": "Inhibition of cells growth by colorimetric assay (SRB), SK-MEL-28", "settings": "SRB, 48 hours exposure", "experimental": "as §1, §2, §3, §4, §5, §6, §7"}, "IGROV-1": {"test_system": "IGROV-1", "assay": "Inhibition of cells growth by colorimetric assay (SRB), IGROV-1", "settings": "SRB, 48 hours exposure", "experimental": "as §1, §2, §3, §4, §5, §6, §7"}, "SK-BR-3": {"test_system": "SK-BR-3", "assay": "Inhibition of cells growth by colorimetric assay (SRB), SK-BR-3", "settings": "SRB, 48 hours exposure", "experimental": "as §1, §2, §3, §4, §5, §6, §7"}, "K-562": {"test_system": "K-562", "assay": "Inhibition of cells growth by colorimetric assay (SRB), K-562", "settings": "SRB, 48 hours exposure", "experimental": "as §1, §2, §3, §4, §5, §6, §7"}, "LoVo-Dox": {"test_system": "LoVo-Dox", "assay": "Inhibition of cells growth by colorimetric assay (SRB), LoVo-Dox", "settings": "SRB, 48 hours exposure", "experimental": "as §1, §2, §3, §4, §5, §6, §7"}, "PANC-1": {"test_system": "PANC-1", "assay": "Inhibition of cells growth by colorimetric assay (SRB), PANC-1", "settings": "SRB, 48 hours exposure", "experimental": "as §1, §2, §3, §4, §5, §6, §7"}, "A-549": {"test_system": "A-549", "assay": "Inhibition of cells growth by colorimetric assay (SRB), A-549", "settings": "for GI50 / LC50 (concentration for 50% cell killing): Homo sapiens, A549, 48 h; for GI50: read-out: GI50 A-549; for LC50 (concentration for 50% cell killing): read-out: LC50 A-549, A-549", "how_it_was_run": "(§8)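 Sulforhodamine B protein-stain readout (490 nm) after 48 h drug exposure, with GI, TGI and LC parameters calculated from triplicate means. Cells seeded at 5×10^3 per well, allowed 18 h drug-free attachment; dose range 10 to 10^−8 μg/ml, vehicle DMSO/EtOH/PBS (0.5:0.5:99).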"}, "SK-OV-3": {"test_system": "SK-OV-3", "assay": "Inhibition of cells growth by colorimetric assay (SRB), SK-OV-3", "settings": "SRB, 48 hours exposure", "experimental": "as §1, §2, §3, §4, §5, §6, §7"}, "HT-29": {"test_system": "HT-29", "assay": "Inhibition of cells growth by colorimetric assay (SRB), HT-29", "settings": "for GI50 / LC50 (concentration for 50% cell killing): Homo sapiens, HT-29, 48 h; for GI50: read-out: GI50 HT-29; for LC50 (concentration for 50% cell killing): read-out: LC50 HT-29, HT-29", "how_it_was_run": "as §8"}, "LoVo": {"test_system": "LoVo", "assay": "Inhibition of cells growth by colorimetric assay (SRB), LoVo", "settings": "SRB, 48 hours exposure", "experimental": "as §1, §2, §3, §4, §5, §6, §7"}, "DU-145": {"test_system": "DU-145", "assay": "Inhibition of cells growth by colorimetric assay (SRB), DU-145", "settings": "SRB, 48 hours exposure", "experimental": "as §1, §2, §3, §4, §5, §6, §7"}, "HMEC1": {"test_system": "HMEC1", "assay": "Inhibition of cells growth by colorimetric assay (SRB), HMEC1", "experimental": "as §1, §2, §3, §4, §5, §6, §7"}}, "note": "Where two headings read alike, the source gives them in different places."}
{"smiles": "COc1cc2c(cc1O)CCN[C@]21CS[C@@H]2c3c(OC(C)=O)c(C)c4c(c3[C@H](COC1=O)N1C2[C@H]2c3c(cc(C)c(OC)c3OC(C)C)C[C@@H]([C@@H]1C#N)N2C)OCO4", "note": "(stereo partly drawn) [Compound 48]", "values": [{"measurement": "GI50", "setting": "IGROV-ET; Homo sapiens, 48 h, IGROV-ET, read-out: GI50 IGROV-ET", "result": 678, "unit": "nM"}, {"measurement": "CC50", "setting": "IGROV-ET; Homo sapiens, 48 h, read-out: LC50 IGROV-ET, IGROV-ET", "result": 12300, "unit": "nM"}, {"measurement": "TGI IGROV-ET", "setting": "IGROV-ET; IGROV-ET", "result": "2.93E-06"}, {"measurement": "GI50", "setting": "SK-MEL-28; Homo sapiens, SK-MEL-28, 48 h, MEL-28, read-out: GI50 MEL-28", "result": 1100, "unit": "nM"}, {"measurement": "CC50", "setting": "SK-MEL-28; Homo sapiens, SK-MEL-28, 48 h, read-out: LC50 MEL-28, MEL-28", "result": 7060, "unit": "nM"}, {"measurement": "TGI MEL-28", "setting": "SK-MEL-28; MEL-28", "result": "2.87E-06"}, {"measurement": "GI50", "setting": "IGROV-1; Homo sapiens, IGROV-1, 48 h, IGROV, read-out: GI50 IGROV", "result": 439, "unit": "nM"}, {"measurement": "CC50", "setting": "IGROV-1; Homo sapiens, IGROV-1, 48 h, read-out: LC50 IGROV, IGROV", "result": 7980, "unit": "nM"}, {"measurement": "TGI IGROV", "setting": "IGROV-1; IGROV", "result": "1.78E-06"}, {"measurement": "GI50", "setting": "SK-BR-3; Homo sapiens, SK-BR-3, 48 h, SK-BR3, read-out: GI50 SK-BR3", "result": 443, "unit": "nM"}, {"measurement": "CC50", "setting": "SK-BR-3; Homo sapiens, SK-BR-3, 48 h, read-out: LC50 SK-BR3, SK-BR3", "result": 6970, "unit": "nM"}, {"measurement": "TGI SK-BR3", "setting": "SK-BR-3; SK-BR3", "result": "1.54E-06"}, {"measurement": "GI50", "setting": "K-562; Homo sapiens, K562, 48 h, K-562, read-out: GI50 K-562", "result": 223, "unit": "nM"}, {"measurement": "LC50 (50% cell killing)", "setting": "K-562; Homo sapiens, K562, 48 h, read-out: LC50 K-562, K-562", "result": 1230, "unit": "nM"}, {"measurement": "TGI K-562", "setting": "K-562; K-562", "result": "5.47E-07"}, {"measurement": "GI50", "setting": "LoVo-Dox; Homo sapiens, 48 h, LOVO-DOX, read-out: GI50 LOVO-DOX", "result": 790, "unit": "nM"}, {"measurement": "CC50", "setting": "LoVo-Dox; Homo sapiens, 48 h, read-out: LC50 LOVO-DOX, LOVO-DOX", "result": 12300, "unit": "nM"}, {"measurement": "TGI LOVO-DOX", "setting": "LoVo-Dox; LOVO-DOX", "result": "4.18E-06"}, {"measurement": "GI50", "setting": "PANC-1; Homo sapiens, PANC-1, 48 h, PANC-1, read-out: GI50 PANC-1", "result": 910, "unit": "nM"}, {"measurement": "LC50 (concentration for 50% net cell kill)", "setting": "PANC-1; Homo sapiens, PANC-1, 48 h, read-out: LC50 PANC-1, PANC-1", "result": 12300, "unit": "nM"}, {"measurement": "TGI PANC-1", "setting": "PANC-1; PANC-1", "result": "5.10E-06"}, {"measurement": "TGI A-549", "setting": "A-549; A-549, SRB, 48 hours exposure", "result": "7.50E-07"}, {"measurement": "GI50", "setting": "A-549; A-549, SRB, 48 hours exposure", "result": 272, "unit": "nM"}, {"measurement": "LC50 (concentration for 50% cell killing)", "setting": "A-549; SRB, 48 hours exposure", "result": 3890, "unit": "nM"}, {"measurement": "GI50", "setting": "SK-OV-3; Homo sapiens, SK-OV-3, 48 h, SK-OV3, read-out: GI50 SK-OV3", "result": 614, "unit": "nM"}, {"measurement": "LC50", "setting": "SK-OV-3; Homo sapiens, SK-OV-3, 48 h, read-out: LC50 SK-OV3, SK-OV3", "result": 12300, "unit": "nM"}, {"measurement": "TGI SK-OV3", "setting": "SK-OV-3; SK-OV3", "result": "3.40E-06"}, {"measurement": "TGI HT-29", "setting": "HT-29; HT-29, SRB, 48 hours exposure", "result": "1.23E-05"}, {"measurement": "GI50", "setting": "HT-29; HT-29, SRB, 48 hours exposure", "result": 1970, "unit": "nM"}, {"measurement": "LC50 (concentration for 50% cell killing)", "setting": "HT-29; SRB, 48 hours exposure", "result": 12300, "unit": "nM"}, {"measurement": "GI50", "setting": "LoVo; Homo sapiens, LoVo, 48 h, LOVO, read-out: GI50 LOVO", "result": 713, "unit": "nM"}, {"measurement": "LC50 (concentration for 50% cell killing)", "setting": "LoVo; Homo sapiens, LoVo, 48 h, read-out: LC50 LOVO, LOVO", "result": 12300, "unit": "nM"}, {"measurement": "TGI LOVO", "setting": "LoVo; LOVO", "result": "2.95E-06"}, {"measurement": "TGI DU-145", "setting": "DU-145; DU-145", "result": "3.20E-06"}, {"measurement": "GI50", "setting": "DU-145; Homo sapiens, DU-145, 48 h, DU-145, read-out: GI50 DU-145", "result": 614, "unit": "nM"}, {"measurement": "CC50", "setting": "DU-145; Homo sapiens, DU-145, 48 h, read-out: LC50 DU-145, DU-145", "result": 12300, "unit": "nM"}]}
{"smiles": "COc1cc2c(cc1OC(=O)OC(C)(C)C)CCN[C@]21CS[C@@H]2c3c(OC(C)=O)c(C)c4c(c3[C@H](COC1=O)N1C2[C@H]2c3c(cc(C)c(OC)c3OC(C)C)C[C@@H]([C@@H]1C#N)N2C)OCO4", "note": "(stereo partly drawn) [Compound 46]", "values": [{"measurement": "TGI HMEC-1", "setting": "HMEC1; HMEC-1, SRB, 48 hours exposure", "result": "5.18E-07"}, {"measurement": "GI50", "setting": "HMEC1; Homo sapiens, HMEC-1, 48 h, read-out: GI50 HMEC-1", "result": 152, "unit": "nM"}, {"measurement": "LC50", "setting": "HMEC1; Homo sapiens, HMEC-1, 48 h, read-out: LC50 HMEC-1, HMEC-1, SRB, 48 hours exposure", "result": 11000, "unit": "nM"}, {"measurement": "TGI A-549", "setting": "A-549; A-549, SRB, 48 hours exposure", "result": "4.06E-07"}, {"measurement": "GI50", "setting": "A-549", "result": 179, "unit": "nM"}, {"measurement": "LC50 (concentration for 50% cell killing)", "setting": "A-549; SRB, 48 hours exposure", "result": 927, "unit": "nM"}, {"measurement": "TGI HT-29", "setting": "HT-29; HT-29, SRB, 48 hours exposure", "result": "1.95E-06"}, {"measurement": "GI50", "setting": "HT-29", "result": 398, "unit": "nM"}, {"measurement": "LC50 (concentration for 50% cell killing)", "setting": "HT-29; SRB, 48 hours exposure", "result": 11000, "unit": "nM"}]}
